# Reference: patent publication US20230365559A1, “NOVEL AMINOPYRIDINES AND THEIR USE IN TREATING CANCER” (priority 2020, published 2023)
# “And” between values parts separate entries of the source, which are not always exact repeats. Identical values can stand only once. Like-named read-outs stand apart in the source and are kept apart here.
# Legend:
# [1] = molecular target: T1, Ser1981 of ataxia-telangiectasia mutated (ATM) (Homo sapiens, UniProt Q13315); test: Inhibition of phosphorylation of Ser1981 of ATM in UT-SCC-54C cells, western immunoblotting; format: cell-based; conditions: oxia, 10 Gy, FIG. 7 (10 μM)
# T1 construct: Ser1981 of ataxia-telangiectasia mutated (ATM) in UT-SCC-54C cells
# [2] = molecular target: Ser2056 of DNA-PKcs (Homo sapiens, UniProt P78527); test: Inhibition of cellular autophosphorylation at Ser2056 of DNA-PKcs in UT-SCC-54C cells, western immunoblotting; format: cell-based; conditions: oxia, 10 Gy, FIG. 7 (10 μM)
# [3] = molecular target: ATM (Homo sapiens, UniProt Q13315); test: ATM Human PIKK Kinase Enzymatic ELISA/EIA Assay, KinaseProfiler (Eurofins Discovery); format: biochemical; conditions: for IC50: KinaseProfiler, Km ATP, Table 15, read-out: Inhibition of PIKK kinase activity ATM; for remaining activity at 1 µM: read-out: ATM, Percent of control at 1 μM
# [4] = molecular target: ATR/ATRIP (Homo sapiens, UniProt Q13535); test: ATR/ATRIP Human PIKK Kinase Enzymatic Radiometric Assay, KinaseProfiler (Eurofins Discovery); format: biochemical; conditions: Km ATP, Table 15, read-out: Inhibition of PIKK kinase activity ATR
# [5] = tested on: UT-SCC-54C tumour xenografts; test: Radiosensitisation of UT-SCC-54C HNSCC tumours, ex vivo clonogenic assay of tumour xenografts; format: in vivo, female NIH-III mice
# [6] = tested on: UT-SCC-54C cells; test: Radiosensitisation of UT-SCC-54C HNSCC cells, clonogenic survival, oxic and anoxic (Table 18); format: cell-based, human; conditions: for Plating efficiency drug/no drug: no radiation
# [7] = tested on: UT-SCC-54C cells; test: Radiosensitisation of UT-SCC-54C HNSCC cells, regrowth (sulforhodamine B) assay, oxic (Table 16); format: cell-based, human; conditions: for S50: compound in combination with 3 Gy of radiation, 50% inhibition of regrowth fraction, UT-SCC-54C; for IC50: Homo sapiens, read-out: IC50
# [8] = tested on: HAP1 cells; test: Radiosensitisation of HAP1 wild type cells, regrowth assay; format: cell-based, human; conditions: for effect in unirradiated HAP1 cells: 0 Gy; for radiosensitisation / differential growth inhibition of HAP1 cells: 3 Gy cobalt-60 gamma irradiation relative to radiation-only; for IC50: Homo sapiens, HAP1, read-out: HAP1 wt IC50
# [9] = tested on: UT-SCC-54C tumour xenografts; test: Inhibition of UT-SCC-54C tumour growth, tumour xenograft study; format: in vivo, female NIH-III mice
# [10] = molecular target: human PI3Kα (p110α/p85α) (Homo sapiens, UniProt P42336); test: Inhibition of PI3Kα kinase activity, ADP-Glo Assay (Reaction Biology); format: biochemical; conditions: 10 μM ATP; mean of two replicates; Table 12; read-out: Inhibition of kinase activity (as IC50) PICK
# [11] = tested on: HAP1/PRKDC−/− cells; test: Radiosensitisation of DNA-PK null HAP1/PRKDC−/− cells, regrowth assay; format: cell-based, human; conditions: for radiosensitisation / differential growth inhibition of DNA-PK null HAP1 line: 3 Gy, HAP1/PRKDC−/−; for IC50: Homo sapiens, HAP1
# [12] = molecular target: human DNA-PK (Homo sapiens, UniProt P78527); test: Inhibition of DNA-PKcs kinase activity, HotSpot assay (Reaction Biology), [γ-33P]-ATP phosphorylation of peptide substrate; format: biochemical
# [13] = molecular target: human mTOR (Homo sapiens, UniProt P42345); test: Inhibition of mTOR kinase activity, HotSpot assay, phosphorylation of 4EPB1
# [14] = 10 μM ATP, 10 μg/ml DNA, mean of two replicates, Table 12, read-out: Inhibition of kinase activity (as IC50) DNA-PK (converted)
# [15] = HotSpot assay Reaction Biology Corp., Table 15, read-out: Inhibition of PIKK kinase activity DNA-PK
# [16] = Inhibition of PIKK kinase activity mTOR/FRAP (nM), HotSpot assay Reaction Biology Corp., Table 15
# [17] = Inhibition of kinase activity (as IC50) mTOR (nM), 10 μM ATP, mean of two replicates, Table 12
# Sequence of human PI3Kα (p110α/p85α) (P42336 whole entry): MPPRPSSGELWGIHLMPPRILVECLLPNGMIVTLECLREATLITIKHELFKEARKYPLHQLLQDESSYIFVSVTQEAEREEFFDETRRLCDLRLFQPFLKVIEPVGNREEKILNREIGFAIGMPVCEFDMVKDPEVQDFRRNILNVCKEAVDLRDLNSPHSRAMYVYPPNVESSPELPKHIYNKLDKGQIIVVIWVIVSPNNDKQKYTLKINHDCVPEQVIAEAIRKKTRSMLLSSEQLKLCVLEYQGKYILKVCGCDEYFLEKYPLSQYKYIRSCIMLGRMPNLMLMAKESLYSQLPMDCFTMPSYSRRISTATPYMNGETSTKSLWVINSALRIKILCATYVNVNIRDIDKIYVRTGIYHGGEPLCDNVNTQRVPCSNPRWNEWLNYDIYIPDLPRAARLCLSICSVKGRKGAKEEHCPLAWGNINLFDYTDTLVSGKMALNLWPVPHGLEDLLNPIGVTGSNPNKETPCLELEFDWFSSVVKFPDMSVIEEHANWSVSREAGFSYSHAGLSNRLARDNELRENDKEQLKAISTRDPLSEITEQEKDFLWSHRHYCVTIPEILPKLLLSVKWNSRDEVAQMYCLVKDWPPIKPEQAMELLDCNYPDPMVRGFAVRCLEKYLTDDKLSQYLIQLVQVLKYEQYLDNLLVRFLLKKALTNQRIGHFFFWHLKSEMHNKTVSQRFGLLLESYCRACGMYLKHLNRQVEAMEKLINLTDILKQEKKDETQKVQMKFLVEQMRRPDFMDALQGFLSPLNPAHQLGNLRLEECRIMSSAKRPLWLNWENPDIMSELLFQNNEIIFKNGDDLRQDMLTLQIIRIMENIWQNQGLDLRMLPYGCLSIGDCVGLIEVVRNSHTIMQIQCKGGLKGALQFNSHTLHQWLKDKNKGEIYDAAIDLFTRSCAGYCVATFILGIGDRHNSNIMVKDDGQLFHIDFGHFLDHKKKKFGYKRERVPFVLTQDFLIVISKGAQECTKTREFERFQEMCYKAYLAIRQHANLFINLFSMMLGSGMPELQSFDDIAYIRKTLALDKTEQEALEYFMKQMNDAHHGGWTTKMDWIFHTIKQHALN
# Sequence of human PI3Kα (p110α/p85α) (P27986 whole entry partner): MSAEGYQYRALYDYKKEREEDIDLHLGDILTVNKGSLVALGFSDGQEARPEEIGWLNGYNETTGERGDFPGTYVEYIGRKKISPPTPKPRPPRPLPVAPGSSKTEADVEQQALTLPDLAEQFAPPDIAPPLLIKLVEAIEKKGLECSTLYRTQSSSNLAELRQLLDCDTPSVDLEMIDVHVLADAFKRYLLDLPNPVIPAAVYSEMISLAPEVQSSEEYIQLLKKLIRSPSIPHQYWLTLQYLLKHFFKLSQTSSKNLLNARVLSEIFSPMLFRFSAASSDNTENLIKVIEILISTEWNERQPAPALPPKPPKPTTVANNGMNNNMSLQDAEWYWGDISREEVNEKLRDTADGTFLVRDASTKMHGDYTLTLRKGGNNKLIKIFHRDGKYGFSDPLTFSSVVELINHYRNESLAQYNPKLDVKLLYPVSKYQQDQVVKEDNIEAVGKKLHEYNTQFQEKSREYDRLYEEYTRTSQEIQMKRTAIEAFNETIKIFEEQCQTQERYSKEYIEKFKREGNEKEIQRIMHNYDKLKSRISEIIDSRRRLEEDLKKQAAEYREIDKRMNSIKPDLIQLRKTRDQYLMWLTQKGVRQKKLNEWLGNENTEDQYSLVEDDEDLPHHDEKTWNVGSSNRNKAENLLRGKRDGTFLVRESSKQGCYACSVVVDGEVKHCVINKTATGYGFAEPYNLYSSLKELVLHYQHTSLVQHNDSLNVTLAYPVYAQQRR
# Sequence of ATM (Q13315 whole entry): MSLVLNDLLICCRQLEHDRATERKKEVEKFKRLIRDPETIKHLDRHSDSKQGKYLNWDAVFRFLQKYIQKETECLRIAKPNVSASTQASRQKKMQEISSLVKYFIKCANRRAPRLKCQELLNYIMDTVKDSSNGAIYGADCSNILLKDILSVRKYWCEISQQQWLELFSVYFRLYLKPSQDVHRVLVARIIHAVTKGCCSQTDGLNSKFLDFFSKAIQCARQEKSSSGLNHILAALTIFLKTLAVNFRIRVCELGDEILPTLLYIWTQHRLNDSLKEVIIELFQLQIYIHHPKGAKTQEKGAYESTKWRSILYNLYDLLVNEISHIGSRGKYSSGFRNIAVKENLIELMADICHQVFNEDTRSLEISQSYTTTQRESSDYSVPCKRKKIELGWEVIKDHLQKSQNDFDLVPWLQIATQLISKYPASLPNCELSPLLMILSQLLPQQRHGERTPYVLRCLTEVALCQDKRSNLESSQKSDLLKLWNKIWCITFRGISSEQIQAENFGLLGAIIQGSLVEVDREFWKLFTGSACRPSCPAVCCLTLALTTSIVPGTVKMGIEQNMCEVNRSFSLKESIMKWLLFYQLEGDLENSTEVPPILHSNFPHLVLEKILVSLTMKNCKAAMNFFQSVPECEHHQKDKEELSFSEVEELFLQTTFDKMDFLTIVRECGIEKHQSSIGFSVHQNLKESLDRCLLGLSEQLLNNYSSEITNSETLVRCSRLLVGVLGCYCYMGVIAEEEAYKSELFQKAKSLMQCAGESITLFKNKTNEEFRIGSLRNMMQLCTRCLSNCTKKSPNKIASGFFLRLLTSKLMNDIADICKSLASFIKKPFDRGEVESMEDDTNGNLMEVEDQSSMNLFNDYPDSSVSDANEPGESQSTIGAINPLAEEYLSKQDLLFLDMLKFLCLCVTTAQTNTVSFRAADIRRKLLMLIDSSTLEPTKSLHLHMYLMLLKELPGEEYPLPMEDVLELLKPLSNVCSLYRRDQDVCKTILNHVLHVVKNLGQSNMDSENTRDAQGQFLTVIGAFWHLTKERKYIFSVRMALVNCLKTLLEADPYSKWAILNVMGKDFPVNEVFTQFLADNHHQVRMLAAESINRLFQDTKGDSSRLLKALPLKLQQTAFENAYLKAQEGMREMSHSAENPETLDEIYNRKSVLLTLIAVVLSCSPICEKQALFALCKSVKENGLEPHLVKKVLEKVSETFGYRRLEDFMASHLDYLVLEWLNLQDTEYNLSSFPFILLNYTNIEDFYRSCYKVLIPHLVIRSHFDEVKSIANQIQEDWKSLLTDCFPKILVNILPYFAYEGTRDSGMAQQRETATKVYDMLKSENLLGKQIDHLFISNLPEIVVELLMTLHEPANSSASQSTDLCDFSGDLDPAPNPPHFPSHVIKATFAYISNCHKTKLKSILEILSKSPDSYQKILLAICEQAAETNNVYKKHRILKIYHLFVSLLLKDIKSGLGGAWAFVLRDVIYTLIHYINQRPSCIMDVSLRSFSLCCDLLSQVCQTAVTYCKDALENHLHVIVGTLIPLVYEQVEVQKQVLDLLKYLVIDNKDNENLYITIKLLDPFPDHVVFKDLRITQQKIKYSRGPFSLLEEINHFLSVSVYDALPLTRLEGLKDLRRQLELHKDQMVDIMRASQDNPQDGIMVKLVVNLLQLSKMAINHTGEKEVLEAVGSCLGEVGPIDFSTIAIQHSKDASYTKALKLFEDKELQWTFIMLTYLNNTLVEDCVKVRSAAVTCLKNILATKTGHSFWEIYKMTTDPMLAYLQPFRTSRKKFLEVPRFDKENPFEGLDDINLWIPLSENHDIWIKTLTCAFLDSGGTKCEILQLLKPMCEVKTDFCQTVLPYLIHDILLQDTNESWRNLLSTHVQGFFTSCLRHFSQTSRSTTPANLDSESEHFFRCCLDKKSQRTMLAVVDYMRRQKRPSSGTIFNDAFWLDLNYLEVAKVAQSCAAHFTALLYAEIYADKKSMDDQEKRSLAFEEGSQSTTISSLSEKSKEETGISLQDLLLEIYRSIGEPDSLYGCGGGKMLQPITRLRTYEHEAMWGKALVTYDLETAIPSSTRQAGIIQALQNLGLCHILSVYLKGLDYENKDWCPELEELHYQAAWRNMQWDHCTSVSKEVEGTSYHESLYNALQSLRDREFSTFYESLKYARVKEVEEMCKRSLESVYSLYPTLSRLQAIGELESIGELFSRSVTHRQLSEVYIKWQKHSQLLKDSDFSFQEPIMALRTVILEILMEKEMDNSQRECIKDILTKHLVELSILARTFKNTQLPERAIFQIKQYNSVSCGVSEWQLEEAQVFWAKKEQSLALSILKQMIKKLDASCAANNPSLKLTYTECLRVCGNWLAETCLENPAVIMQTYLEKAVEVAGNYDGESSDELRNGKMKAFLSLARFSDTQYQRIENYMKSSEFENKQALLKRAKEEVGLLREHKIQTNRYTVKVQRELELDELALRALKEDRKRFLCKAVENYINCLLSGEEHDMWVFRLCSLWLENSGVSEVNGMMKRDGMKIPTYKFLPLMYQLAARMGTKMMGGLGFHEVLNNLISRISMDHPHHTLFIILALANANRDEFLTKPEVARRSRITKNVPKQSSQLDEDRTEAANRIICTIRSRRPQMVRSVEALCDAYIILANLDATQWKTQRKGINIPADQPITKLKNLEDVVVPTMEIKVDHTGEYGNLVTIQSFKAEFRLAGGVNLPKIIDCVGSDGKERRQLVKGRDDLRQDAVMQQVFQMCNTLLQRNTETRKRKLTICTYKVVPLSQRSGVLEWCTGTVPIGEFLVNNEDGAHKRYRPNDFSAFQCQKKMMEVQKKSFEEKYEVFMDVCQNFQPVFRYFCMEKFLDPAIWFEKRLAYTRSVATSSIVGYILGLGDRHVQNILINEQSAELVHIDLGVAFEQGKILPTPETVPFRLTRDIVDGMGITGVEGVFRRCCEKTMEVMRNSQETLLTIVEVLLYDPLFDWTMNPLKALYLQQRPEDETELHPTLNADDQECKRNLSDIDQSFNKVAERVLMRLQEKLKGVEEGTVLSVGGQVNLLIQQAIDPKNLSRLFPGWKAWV
# T1 sequence (Q13315 whole entry, change not shown): as the sequence (Q13315 whole entry) above
Structure (SMILES),IC50 [3] [µM],IC50 [4] [µM],"D10 (radiation dose for 10% surviving fraction) ([6]; 20% O2, compound conc 1 μM) [Gy]",S50 ([7]; oxic) [µM],effect in unirradiated HAP1 cells [8],radiosensitisation / differential growth inhibition of HAP1 cells [8],remaining activity at 1 µM [3] [%],IC50 [10],radiosensitisation / differential growth inhibition of DNA-PK null HAP1 line [11],IC50 [11] [µM],IC50 [7] [µM],IC50 [8] [µM],"IC50 [12, 14]","IC50 [12, 15] [µM]","IC50 [13, 16] [nM]","IC50 [13, 17]",other results
"CC(C)n1c(=O)n(C)c2cnc3cc(F)c(-c4ccc(OCCCN5CCCCC5)nc4)cc3c21 [AZD1393, reference compound]",–,–,–,–,–,–,–,–,–,–,–,–,–,–,–,–,inhibition of phosphorylation of Ser1981 on ATM [1]: inhibited; inhibition of Ser2056 on DNA-PKcs [2]: did not affect
"Cn1c(=O)n(C2CCCC2)c2cc(Nc3ccccn3)ncc21 [Compound 73, 1-Cyclopentyl-3-methyl-6-(pyridin-2-ylamino)-1,3-dihydro-2H-imidazo[4,5-c]pyridin-2-one]",0.275,–,–,–,–,–,–,–,–,–,–,–,–,–,–,–,–
"COc1ccc(Nc2cc3c(cn2)n(C)c(=O)n3C2CCOCC2)c(C)c1 [Compound 121, 6-((4-Methoxy-2-methylphenyl)amino)-3-methyl-1-(tetrahydro-2H-pyran-4-yl)-1,3-dihydro-2H-imidazo[4,5-c]pyridin-2-one]",–,> 100,2.65,0.34,little effect,concentration-dependent radiosensitisation,–,–,–,–,–,–,–,–,–,–,"reduction in clonogens/gram of tumour, compound with radiation compared to radiation alone ([5]; IP 50 mg/kg 15 min before and 6 h after 13 Gy whole-body irradiation): significant (p=0.005) additional reduction; reduction in clonogens/gram of tumour tissue, compound alone ([5]; IP 2 x 50 mg/kg, no radiation, compared to DMSO control): no reduction; D1 (radiation dose for 1% surviving fraction) ([6]; 0% O2, compound conc 1 μM): 11.7 Gy; D10 (radiation dose for 10% surviving fraction) ([6]; 0% O2, compound conc 1 μM): 6.18 Gy; D1 (radiation dose for 1% surviving fraction) ([6]; 20% O2, compound conc 0.33 μM): 1.29 Gy; D10 (radiation dose for 10% surviving fraction) ([6]; 20% O2, compound conc 0.33 μM): 4.63 Gy; D1 (radiation dose for 1% surviving fraction) ([6]; 20% O2, compound conc 3 μM): 3.44 Gy; D10 (radiation dose for 10% surviving fraction) ([6]; 20% O2, compound conc 3 μM): 1.73 Gy; radiosensitisation, clonogenic survival endpoint ([6]; UT-SCC-54C, FIG. 8 and Table 18): concentration-dependent increases in radiosensitisation; radiosensitisation of UT-SCC-54C cells under oxic conditions ([6]; oxic, clonogenic survival, FIG. 9): provides radiosensitisation; tumour growth inhibition in combination with radiation compared to radiation alone ([9]; PO 2×100 mg/kg, 10 Gy (P=0.007)): significant tumour growth inhibition; tumour growth inhibition in combination with radiation compared to radiation alone ([9]; PO 2×400 mg/kg, 10 Gy (P=0.03)): significant tumour growth inhibition; tumour growth inhibition, compound alone ([9]; PO, compared to DMSO control, FIG. 12A): little additional tumour growth inhibition"
"Cc1cc2ncnn2cc1Nc1cc2c(cn1)n(C)c(=O)n2C1CCOCC1 [Compound 125, 3-Methyl-6-((7-methyl-[1,2,4]triazolo[1,5-a]pyridin-6-yl)amino)-1-(tetrahydro-2H-pyran-4-yl)-1,3-dihydro-2H-imidazo[4,5-c]pyridin-2-one]",–,> 1,2.49,0.67,little effect,concentration-dependent radiosensitisation,74,10.7 µM,did not radiosensitise,> 10,> 10,> 10,0.0143 µM,0.0143,43900,43900 nM,"D1 (radiation dose for 1% surviving fraction) ([6]; 20% O2, compound conc 1 μM): 4.90 Gy; SER1 (sensitiser enhancement ratio at 1% surviving fraction) ([6]; 20% O2, compound conc 1 μM): 1.77; SER10 (sensitiser enhancement ratio at 10% surviving fraction) ([6]; 20% O2, compound conc 1 μM): 2.17; Plating efficiency drug/no drug ([6]; 20% O2, compound conc 1 μM): 1.02"
"Cc1nc2cc(C)c(Nc3cc4c(cn3)n(C)c(=O)n4C3CCOCC3)cc2s1 [Compound 127, 6-((2,5-Dimethylbenzo[d]thiazol-6-yl)amino)-3-methyl-1-(tetrahydro-2H-pyran-4-yl)-1,3-dihydro-2H-imidazo[4,5-c]pyridin-2-one]",2.56,–,–,0.22,little effect,concentration-dependent radiosensitisation,–,3.96 µM,did not radiosensitise,> 10,> 10,> 10,0.00711 µM,0.00711,5420,5420 nM,–
"CCOC(=O)c1cnc2cc(C)c(Nc3cc4c(cn3)n(C)c(=O)n4C3CCOCC3)cn12 [Compound 129, Ethyl 7-Methyl-6-((3-methyl-2-oxo-1-(tetrahydro-2H-pyran-4-yl)-2,3-dihydro-1H-imidazo[4,5-c]pyridin-6-yl)amino)imidazo[1,2-a]pyridine-3-carboxylate]",–,–,–,0.09,little effect,concentration-dependent radiosensitisation,79,0.314 µM,did not radiosensitise,> 10,> 10,> 10,0.00257 µM,0.00257,18900,19000 nM,–
"Cn1c(=O)n(-c2ccc(C(C)(C)C#N)cc2)c2cc(Nc3ccc4ncccc4c3)ncc21 [Compound 213, 2-Methyl-2-(4-(3-methyl-2-oxo-6-(quinolin-6-ylamino)-2,3-dihydro-1H-imidazo[4,5-c]pyridin-1-yl)phenyl)propanenitrile]",–,–,–,2.22,–,–,68,1.73 µM,–,–,> 10,–,0.00123 µM,0.00123,–,–,–
"COc1ccc(Nc2cc3c(cn2)n(C)c(=O)n3C2CCOCC2)cc1 [Compound 215, 6-((4-Methoxyphenyl)amino)-3-methyl-1-(tetrahydro-2H-pyran-4-yl)-1,3-dihydro-2H-imidazo[4,5-c]pyridin-2-one]",–,–,–,7.5,–,–,90,12.5 µM,–,–,> 10,–,0.051 µM,0.051,12300,12300 nM,–
"Cc1cc(OCc2cnc([N+](=O)[O-])n2C)ccc1Nc1cc2c(cn1)n(C)c(=O)n2C1CCOCC1 [Compound 236, 3-Methyl-6-((2-methyl-4-((1-methyl-2-nitro-1H-imidazol-5-yl)methoxy)phenyl)amino)-1-(tetrahydro-2H-pyran-4-yl)-1,3-dihydro-2H-imidazo[4,5-c]pyridin-2-one]",57.3,> 100,6.06,>10,–,did not demonstrate any differential growth inhibition,–,16.2 µM and 52.3 µM,did not demonstrate any differential growth inhibition,> 10,> 10,> 10,0.78 µM and 2.2 µM,0.78,92900,92900 nM and > 100000 nM,"D1 (radiation dose for 1% surviving fraction) ([6]; 0% O2, compound conc 1 μM): 17.4 Gy; D10 (radiation dose for 10% surviving fraction) ([6]; 0% O2, compound conc 1 μM): 9.96 Gy; SER1 (sensitiser enhancement ratio at 1% surviving fraction) ([6]; 0% O2, compound conc 1 μM): 1.37; SER10 (sensitiser enhancement ratio at 10% surviving fraction) ([6]; 0% O2, compound conc 1 μM): 1.58; Plating efficiency drug/no drug ([6]; 0% O2, compound conc 1 μM): 1.09; D1 (radiation dose for 1% surviving fraction) ([6]; 20% O2, compound conc 1 μM): 9.41 Gy; SER1 (sensitiser enhancement ratio at 1% surviving fraction) ([6]; 20% O2, compound conc 1 μM): 1.00; SER10 (sensitiser enhancement ratio at 10% surviving fraction) ([6]; 20% O2, compound conc 1 μM): 0.94; Plating efficiency drug/no drug ([6]; 20% O2, compound conc 1 μM): 1.05; SER (sensitiser enhancement ratio) ([6]; UT-SCC-54C, anoxic conditions, clonogenic survival, FIG. 10): 1.51; sensitisation of UT-SCC-54C cells selectively under anoxia ([6]; oxic vs anoxic, clonogenic survival, FIGS. 9 and 10): provide sensitisation of UT-SCC-54C cells selectively under anoxia; radiosensitisation / differential growth inhibition of UT-SCC-54C cells ([7]; oxic, 0 or 3 Gy, regrowth assay): did not display any differential growth inhibition"
"COc1ccc([C@@H](O)c2cc(-c3ncnc4cc(N5CCOCC5)ccc34)c(F)cc2Cl)nn1 [Compound M3814, reference compound]",–,–,–,–,–,–,–,–,–,–,–,–,–,–,–,–,inhibition of Ser2056 on DNA-PKcs [2]: demonstrated inhibition
